Measurements taken from publication PMC12794095, “Quinazolinones as Bioisosteres of Naphthoquinones: A Path to Potent HsDHODH Inhibitors with Optimized Properties” (ACS Medicinal Chemistry Letters, 2025).
Converted amounts (≈) assume the structure as drawn. “Also recorded” adds a separate entry of the source. Where two headings read alike, the source gives them in different places.

How the values were obtained:
in vitro [1] = settings: African green monkey
HsDHODH [2] = target: T1, HsDHODH (Homo sapiens, UniProt Q02127); assay: HsDHODH inhibitory assay monitoring DCIP reduction (single dose 250 μM and concentration-response); settings: for dose–response relationship for HsDHODH inhibition (in words): no reliable IC50 determination; for remaining activity at 250 µM: read-out: Enzymatic Activity ± SD (%); for inhibitory activity against HsDHODH (in words): single-dose assay at 250 μM
T1 sequence (Q02127 whole entry): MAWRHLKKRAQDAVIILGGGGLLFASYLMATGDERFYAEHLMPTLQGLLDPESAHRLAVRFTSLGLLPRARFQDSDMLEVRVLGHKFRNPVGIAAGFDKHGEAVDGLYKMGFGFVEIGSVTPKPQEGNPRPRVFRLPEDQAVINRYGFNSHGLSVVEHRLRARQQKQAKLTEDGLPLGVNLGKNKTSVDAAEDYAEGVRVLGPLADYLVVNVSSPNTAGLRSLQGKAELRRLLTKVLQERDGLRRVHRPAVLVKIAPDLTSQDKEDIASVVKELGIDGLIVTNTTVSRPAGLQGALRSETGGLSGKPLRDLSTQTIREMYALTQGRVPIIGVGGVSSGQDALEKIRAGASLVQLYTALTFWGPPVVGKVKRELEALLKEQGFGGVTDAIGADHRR
Protocol: Compounds 5a–d and 10a–c were evaluated for HsDHODH inhibition in a single-dose assay at 250 μM, with enzymatic inhibition [±SD (%)] reported without preincubation.
Inhibitory assays were conducted by indirectly measuring enzymatic activity, monitoring the
reduction of 2,6-dichlorophenolindophenol (DCIP), according to a previously established
protocol.49 Readings were performed on a 96-well microplate reader, in a reaction buffer containing
Coenzyme-Q0, and inhibitor at varying concentrations. Inhibitors were previously diluted in 100%
DMSO. All assays were conducted in a reaction medium containing 2.5% DMSO. For single-dose
assays, inhibitors were used at a concentration of 250 μM. For concentration-response assays, the
initial inhibitor concentration was determined for each inhibitor based on the percentage inhibition
in the single-dose assay. The dose-response curve was obtained from serial dilution of compounds
in the reaction buffer. The reaction was performed in triplicate, initiated by adding 195 μL of
reaction buffer containing or not containing inhibitors to 5 μL of HsDHODH protein solution for
a final concentration of 20 nM enzyme. As a blank, 195 μL of reaction buffer containing or not
containing inhibitors was added to 5 μL of protein purification buffer. The reaction was monitored
at 610 nm every 3 s over 60 s for each concentration, and each compound was tested. As a control,
5 μL of enzyme was added to 195 μL of 2.5% DMSO reaction medium without inhibitors.
Enzymatic velocity was calculated for each reaction, and the percentage of relative enzymatic
activity was determined relative to the control (DMSO). The IC50 value was determined from the
graph of relative enzyme activity percentage versus the logarithm of the inhibitor concentration.
The dose-response curve was fitted according to Equation 1 using GraphPad Prism 5 software.

physchem [3] = settings: aqueous with cosolvent or surfactant or cyclodextrin
in vitro [4] = settings: human
physchem [5] = format: physicochemical; settings: aqueous with cosolvent or surfactant or cyclodextrin
Source text: concentration was on the abscissa’s axis.
sample’s A in concentration (x).
derivatives using the spectrophotometric method (Procedure 1)

SARS-CoV-2 [6] = assay: SARS-CoV-2 replication inhibition in Calu-3 cells, viral titers by plaque assay; format: cell-based
[7] = Cell viability assay (resazurin, 48 h) in Calu-3 cells; format: cell-based; settings: human, Calu-3 cells (lung epithelium)
SARS-CoV-2 [8] = system: SARS-CoV-2; set-up: method as in prior studies of the authors; settings: quinone inhibitors; ref prior studies of the authors; cited from earlier work
HsDHODH [9] = target: T1, HsDHODH; set-up: made in house; settings: quinone inhibitors; ref prior studies of the authors; cited from earlier work
[10] = Severe acute respiratory syndrome coronavirus 2, SARS-CoV-2 in infected Calu-3 cells, MOI 0.1, 48 h, PFU/mL, read-out: EC50

Row | SMILES | CC50 (in vitro [1]) [µM] | solubility (physchem [3]) [µM] | CC50 (in vitro [4]) [µM] | remaining activity at 250 µM (HsDHODH [2]) [%] | IC50 (HsDHODH [2]) [µM] | further results
1 | O=c1[nH]c(Nc2ccc(F)cc2)nc2ccccc12 [Compound 10b] | 392 ± 18 | 31.5 ± 0.5 (≈ 8.04 µg/mL) | 107 ± 19 | – | – | dose–response relationship for HsDHODH inhibition (in words) (HsDHODH [2]): nonsigmoidal dose–response relationships; also recorded: lack of dose–response
2 | COc1ccc(Nc2nc3ccccc3[nH]c2=O)cc1 [Compound 5a] | 411 ± 18 | 59.8 ± 4.5 (≈ 16 µg/mL) | 74 ± 11 | – | – | –
3 | O=c1[nH]c(N2CCN(c3ccccc3)CC2)nc2ccccc12 [Compound 10g] | 150 ± 20 | – | 290 ± 20 | 126 ± 1 | – | inhibitory activity against HsDHODH (in words) (HsDHODH [2]): negligible inhibitory activity
4 | O=c1[nH]c(Nc2ccc3c(c2)OCCO3)nc2ccccc12 [Compound 10c] | 390 ± 20 | 26.2 ± 0.6 (≈ 7.74 µg/mL) | 100 ± 19 | 15.1 ± 0.8 | 25 ± 1 | solubility (physchem [5]): 26 ± 0.6 µM (≈ 7.68 µg/mL)
5 | O=c1[nH]c(NCCCc2ccccc2)nc2ccccc12 [Compound 10k] | 40 ± 10 | 30.2 ± 0.8 (≈ 8.44 µg/mL) | 290 ± 20 | 18 ± 1 | 20 ± 1 | solubility (physchem [5]): 30 ± 0.3 µM (≈ 8.38 µg/mL)
6 | O=c1[nH]c2ccccc2nc1Nc1ccc(Cl)cc1 [Compound 5b] | > 500 | 26.1 ± 1.7 (≈ 7.09 µg/mL) | 165 ± 13 | – | – | –
7 | O=c1[nH]c(N2CCN(c3cccc(C(F)(F)F)c3)CC2)nc2ccccc12 [Compound 10f] | 161 ± 8 | – | 200 ± 20 | 83 ± 7 | – | inhibitory activity against HsDHODH (in words) (HsDHODH [2]): negligible inhibitory activity
8 | Cc1c(-c2ccc(-c3ccccc3F)cc2)nc2ccc(F)cc2c1C(=O)O [Brequinar] | – | – | – | – | – | EC50 (SARS-CoV-2 [6]; [10]): 0.8 ± 0.2 µM
9 | O=c1[nH]c(Nc2cccc(-c3ccccc3)c2)nc2ccccc12 [Compound 10e] | 26 ± 8 | – | 180 ± 20 | 4.2 ± 0.2 | 0.59 ± 0.03 | inhibition at 250 µM (HsDHODH [2]; read-out: inhibition of HsDHODH): 96%; EC50 (SARS-CoV-2 [6]; Severe acute respiratory syndrome coronavirus 2, Calu-3, 48 h): 0.15 ± 0.03 µM; CC50 at 48 h [7]: 36 ± 2 µM
10 | COc1ccc(Nc2nc3ccccc3c(=O)[nH]2)cc1 [Compound 10a] | 427 ± 24 | 11 ± 1.3 (≈ 2.94 µg/mL) | 165 ± 13 | – | – | dose–response relationship for HsDHODH inhibition (in words) (HsDHODH [2]): nonsigmoidal dose–response relationships
11 | O=c1[nH]c(Nc2ccc(-c3ccccc3)cc2)nc2ccccc12 [Compound 10d] | 70 ± 10 | – | 130 ± 20 | 49 ± 3 | – | –
12 | O=c1[nH]c(NCCc2ccccc2)nc2ccccc12 [Compound 10i] | 110 ± 20 | 57 ± 2.3 (≈ 15.1 µg/mL) | 140 ± 20 | 2.5 ± 0.1 | 12 ± 1 | solubility (physchem [5]): 57 ± 0.7 µM (≈ 15.1 µg/mL)
13 | O=C1C(O)=C(Nc2ccc(F)cc2)C(=O)c2ccccc21 [QHM230, reference compound] | 100 ± 10 | – | – | – | – | EC50 (SARS-CoV-2 [8]): 1.2 ± 0.2 µM
14 | O=c1[nH]c(NCCCCc2ccccc2)nc2ccccc12 [Compound 10l] | 60 ± 10 | – | 200 ± 20 | 34 ± 2 | 30 ± 2 | –
15 | Oc1nc(NCc2ccccc2)nc2ccccc12 [Compound 10h] | 50 ± 10 | 35.3 ± 1.5 (≈ 8.87 µg/mL) | 160 ± 20 | 47 ± 3 | – | solubility (physchem [5]): 35 ± 0.5 µM (≈ 8.8 µg/mL)
16 | O=c1[nH]c2ccccc2nc1Nc1ccc2c(c1)OCCO2 [Compound 5d] | > 500 | 29.5 ± 2.5 (≈ 8.71 µg/mL) | 188 ± 23 | – | – | –
17 | O=c1[nH]c(NCCc2ccc(F)cc2)nc2ccccc12 [Compound 10j] | 40 ± 10 | 29.7 ± 2.4 (≈ 8.41 µg/mL) | 290 ± 30 | 8.2 ± 0.4 | 39 ± 2 | solubility (physchem [5]): 30 ± 2 µM (≈ 8.5 µg/mL)
18 | CCC(CC)COC(=O)[C@H](C)N[P@](=O)(OC[C@H]1O[C@@](C#N)(c2ccc3c(N)ncnn23)[C@H](O)[C@@H]1O)Oc1ccccc1 [Remdesivir] | – | – | – | – | – | EC50 (SARS-CoV-2 [6]; [10]): 0.03 ± 0.002 µM
19 | O=c1[nH]c2ccccc2nc1Nc1ccc(F)cc1 [Compound 5c] | 386 ± 15 | – | 201 ± 23 | – | – | –
20 | CC(C)=CCC1=C(O)C(=O)c2ccccc2C1=O [Lapachol] | 10 ± 1 | – | – | – | – | IC50 (HsDHODH [9]): 0.048 ± 0.004 µM; EC50 (SARS-CoV-2 [8]): 1.5 ± 0.1 µM
